Series [1] concerns the target hCA I (Homo sapiens, UniProt P00915). As to the kind of experiment: stopped flow CO2 hydrase assay, hCA I.
Procedure: (§1) An Applied Photophysics stopped-flow instrument was used for assaying the CA-catalyzed CO2 hydration activity [50]. […] However, the background activity from the uncatalyzed reaction was always subtracted when IC50 values were obtained by using the data analysis software for the stopped-flow instrument. […] The uncatalyzed rates were determined in the same manner and subtracted from the total observed rates. Stock solutions of the inhibitor (0.1 mM) were prepared in distilled–deionized water, and dilutions up to 0.01 nM were performed thereafter with the assay buffer. Inhibitor and enzyme solutions were preincubated together for 15 min at room temperature prior to the assay, to allow for the formation of the E–I complex. The inhibition constants were obtained by nonlinear least-squares methods using PRISM 3 and the Cheng–Prusoff equation as reported earlier and represented the mean from at least three different determinations. All CA isoforms were recombinant proteins obtained in-house, as reported earlier [2, 51, 52].
Series [2] addresses hCA II (Homo sapiens, UniProt P00918). The series can be described thus: stopped flow CO2 hydrase assay, hCA II.
Procedure: as §1
Series [3] addresses hCA IX (Homo sapiens, UniProt Q16790). As to the kind of experiment: stopped flow CO2 hydrase assay, hCA IX.
Procedure: as §1
The target of series [4] is hCA XII (Homo sapiens, UniProt O43570). As to the kind of experiment: stopped flow CO2 hydrase assay, hCA XII.
hCA XII, sequence (O43570 25-354): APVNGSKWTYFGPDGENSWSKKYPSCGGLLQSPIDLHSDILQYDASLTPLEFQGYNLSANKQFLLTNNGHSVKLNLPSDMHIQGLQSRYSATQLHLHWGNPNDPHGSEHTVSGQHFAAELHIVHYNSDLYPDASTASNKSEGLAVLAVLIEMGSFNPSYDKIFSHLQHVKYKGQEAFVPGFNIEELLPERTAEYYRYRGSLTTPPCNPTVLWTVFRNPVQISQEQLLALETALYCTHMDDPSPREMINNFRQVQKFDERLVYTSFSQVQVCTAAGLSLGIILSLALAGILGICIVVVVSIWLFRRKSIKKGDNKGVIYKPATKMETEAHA
Procedure: as §1

SMILES strings stand for the structures.

hCA I, sequence (P00915 whole entry): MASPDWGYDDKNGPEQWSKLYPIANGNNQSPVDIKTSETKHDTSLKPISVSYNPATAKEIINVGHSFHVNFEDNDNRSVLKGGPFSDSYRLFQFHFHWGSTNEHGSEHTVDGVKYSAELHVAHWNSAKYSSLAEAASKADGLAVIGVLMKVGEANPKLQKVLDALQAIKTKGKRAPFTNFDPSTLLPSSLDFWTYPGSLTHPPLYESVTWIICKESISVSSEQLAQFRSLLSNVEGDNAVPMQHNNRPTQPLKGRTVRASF

Take `NS(=O)(=O)c1ccc(NC(=O)c2cc(-c3ccccc3O)[nH]n2)cc1` [4a, N-[4-(Aminosulfonyl)phenyl]-3-(2-hydroxyphenyl)-1H-pyrazole-5-carboxamide]: the Ki (usually a measure of affinity in units of concentration, obtained from inhibition or displacement) in series [1] came out at 3820 nM; in series [2], 867 nM; in series [3] it was 450 nM; in series [4], 271 nM.
Turning to `Cc1ccc(-c2cc(C(=O)Nc3ccc(S(N)(=O)=O)cc3)[nH]n2)c(O)c1` [4b, N-[4-(Aminosulfonyl)phenyl]-3-(2-hydroxy-4-methylphenyl)-1H-pyrazole-5-carboxamide], the inhibition constant Ki in series [1] worked out at 93.3 nM; in series [2], 309 nM; in series [3] it was 78.9 nM; in series [4], 372 nM.
As to `Cc1ccc(O)c(-c2cc(C(=O)Nc3ccc(S(N)(=O)=O)cc3)[nH]n2)c1` [4c, N-[4-(Aminosulfonyl)phenyl]-3-(2-hydroxy-5-methylphenyl)-1H-pyrazole-5-carboxamide], the melting point – broadly, the temperature of the solid-liquid transition – is 297 to 299 °C. In series [1], this compound displayed a Ki of 221 nM. In addition, in series [2], the affinity, expressed as Ki, was 16.1 nM. The compound further showed a Ki in series [3] of 8.5 nM. For the same compound, in series [3] (hCA IX compared to hCA I), the “selectivity index on hCA IX compared to hCA I” value is 26. Besides, the “selectivity index on hCA IX compared to hCA II” value in series [3] (hCA IX compared to hCA II) was “two times”. Further, the inhibitory constant (Ki) in series [4] was determined as 250 nM.
In the case of `NS(=O)(=O)c1ccc(NC(=O)c2cc(-c3cc(Cl)ccc3O)n[nH]2)cc1` [4f, N-[4-(Aminosulfonyl)phenyl]-3-(5-chloro-2-hydroxyphenyl)-1H-pyrazole-5-carboxamide], the melting point fell in the range of 302 to 304 °C. The compound further yielded a Ki in series [1] of 155 nM. In series [2], this compound had a Ki of 37.2 nM. In series [3], this compound yielded an inhibition constant Ki of 34.2 nM. In addition, affinity in series [4] was put at a Ki of 90.8 nM.
Turning to `NS(=O)(=O)c1ccc(CCNC(=O)c2cc(-c3ccccc3O)n[nH]2)cc1` [5a, N-{2-[4-(Aminosulfonyl)phenyl]ethyl}-3-(2-hydroxyphenyl)-1H-pyrazole-5-carboxamide], the Ki in series [1] is 88.1 nM.
`Cc1ccc(-c2cc(C(=O)NCCc3ccc(S(N)(=O)=O)cc3)[nH]n2)c(O)c1` [5b, N-{2-[4-(Aminosulfonyl)phenyl]ethyl}-3-(2-hydroxy-4-methylphenyl)-1H-pyrazole-5-carboxamide] returned a melting point of 254 to 255 °C. In series [1], this compound had a Ki of 345 nM. The same compound yielded a Ki in series [2] of 16.2 nM. In series [3], the inhibition constant Ki came to 16.1 nM. This compound also returned an inhibition constant (Ki) in series [4] of 330 nM.
In the case of `Cc1cc(O)c(-c2cc(C(=O)NCCc3ccc(S(N)(=O)=O)cc3)[nH]n2)cc1C` [5d, N-{2-[4-(Aminosulfonyl)phenyl]ethyl}-3-(2-hydroxy-4,5-dimethylphenyl)-1H-pyrazole-5-carboxamide], the melting point was in the range of 256 to 258 °C. This compound showed an inhibitory constant (Ki) in series [1] of 218 nM. In addition, the inhibition constant (Ki) in series [2] worked out at 25.2 nM. Besides, the affinity in series [3], expressed as Ki, was 63.5 nM. In series [4], this compound showed an inhibitory constant (Ki) of 61.3 nM.
On to `Cc1cc(C)c(O)c(-c2cc(C(=O)NCCc3ccc(S(N)(=O)=O)cc3)[nH]n2)c1` [5e, N-{2-[4-(Aminosulfonyl)phenyl]ethyl}-3-(2-hydroxy-3,5-dimethylphenyl)-1H-pyrazole-5-carboxamide], for which the Ki in series [1] is 71.4 nM; in series [2] it was 16.2 nM; in series [3], 52.3 nM; in series [4] it was 191 nM.
Consider `NS(=O)(=O)c1ccc(CCNC(=O)c2cc(-c3cc(Cl)ccc3O)n[nH]2)cc1` [5f, N-{2-[4-(Aminosulfonyl)phenyl]ethyl}-3-(5-chloro-2-hydroxyphenyl)-1H-pyrazole-5-carboxamide], for which the inhibition constant (Ki) in series [1] is 2150 nM; in series [2], 9.1 nM; in series [3], 79.4 nM; in series [4], 77.3 nM. For the same compound, the “selectivity index (SI) for hCA II towards hCA I” value in series [2] (hCA II compared to hCA I) was 236. Further, in series [2] (hCA II compared to hCA IX), the “selectivity index (SI) for hCA II compared to hCA IX” value was determined as 8.7.
Regarding `NS(=O)(=O)c1ccc(NC(=O)c2nn(-c3ccc(F)cc3)ccc2=O)cc1` [10b, N-[4-(Aminosulfonyl)phenyl]-1-(4-fluorophenyl)-4-oxo-1,4-dihydropyridazine-3-carboxamide], the melting point fell in the range of 313 to 315 °C. In addition, affinity in series [1] was put at a Ki of 481 nM. Further, in series [2], the Ki stood at 72.5 nM. The inhibition constant Ki in series [3] came out at 131 nM. In series [4], this compound gave a Ki of 94.8 nM.
`NS(=O)(=O)c1ccc(NC(=O)c2nn(-c3cccc(Cl)c3)ccc2=O)cc1` [10c, N-[4-(Aminosulfonyl)phenyl]-1-(3-chlorophenyl)-4-oxo-1,4-dihydropyridazine-3-carboxamide] had a melting point of 297 to 299 °C. The Ki in series [1] worked out at 840 nM. Besides, the Ki in series [2] amounted to 76.3 nM. The Ki in series [3] was found to be 569 nM. The same compound returned a Ki in series [4] of 433 nM.
Compound `NS(=O)(=O)c1ccc(NC(=O)c2nn(-c3ccc(Cl)cc3)ccc2=O)cc1` [10d, N-[4-(Aminosulfonyl)phenyl]-1-(4-chlorophenyl)-4-oxo-1,4-dihydropyridazine-3-carboxamide] registered a melting point of 310 to 312 °C. The compound further had a Ki in series [1] of 6.2 nM. Moreover, the affinity in series [2] corresponds to a Ki of 8 nM. In series [3], this compound returned an inhibitory constant (Ki) of 165 nM. The same compound displayed a Ki in series [4] of 65.7 nM.
As to `COc1cc2c(cc1OC)-c1c(c(C(=O)Nc3ccc(S(N)(=O)=O)cc3)nn1C)C2` [compound 15, N-[4-(Aminosulfonyl)phenyl]-6,7-dimethoxy-1-methyl-1,4-dihydroindeno[1,2-c]pyrazole-3-carboxamide], the inhibition constant (Ki) in series [1] worked out at 726 nM; in series [3] it was 6.1 nM.
